Experimental data published in patent publication US11253457B2, “Exopolysaccharide-protein complex, a method of preparing said complex and uses thereof” (INSTITUT UNIV. DE CIÈNCIA I TECNOLOGIA, S.A., priority 2016, dated 2022).

Assays:
[1] = system: human hepatocellular carcinoma cell line (HepG2); test: MTT tumor cell proliferation assay (HepG2); type: cell-based; details: HepG2, positive control
Experimental: The MTT assay was used for measuring the proliferation of the tumor cells. Briefly, human hepatocellular carcinoma cell line (HepG2), human breast adenocarcinoma cell line (MCF7), human lung adenocarcinoma cell line (H1975) and Human melanoma cell line (A375) were seeded at a density of 4×10^4 cells/mL in a volume of 0.1 mL in 96-well plates, respectively. After 24 h, different concentrations of EPCx (1.0, 0.1 and 0.01 mg/ml) were dissolved in the medium was added to each well and incubated for 48 h at 37° C. in a CO2 incubator. 5-Fu (5-fluorouracil) was used as the positive control. After the incubation, 20 μL of MTT solution (5 mg/mL) were added into each well and followed by further incubation for 4-5 h. The culture media were then removed and 100 μL of DMSO was added to each well for 1 h. Absorbance at 570 nm was detected by microplate ELISA reader.

IL-10 [2] = test: Real-time PCR of IL-10 mRNA in keratinocytes stressed with LPS; type: cell-based, human; details: LPS 10 μg/ml alone
Experimental: (§1) The capacity of EPS to modulate the inflammatory response was evaluated in vitro in human primary keratinocytes (HEK) and human monocyte-like cells (THP-1) stressed with LPS (lipopolysaccharide). The cells were pretreated with different concentrations of exopolysaccharide-protein complex (1, 0.1 and 0.01 mg/ml) for 24 h and with 10 μg/ml of LPS for 24 h. Controls of HEK and THP-1 cells treated only with the different concentrations of exopolysaccharide-protein complex (1.0, 0.1 and 0.01 mg/ml) were also prepared.
(§2) Expression of mRNA for the cytokines IL-6, IL-8, IL-10 and TNF-α was analyzed by real-time PCR and the NF-κB activation was measured using a luciferase reporter gene assay.
(§3) Real-time PCR: Total RNA was extracted with the RNA Isolation Kit (ThermoFischer Scientific) according to the manufacturer's recommendations. 1 ng of RNA was reverse transcribed into complementary DNA (cDNA) using Superscript One-Step RT-PCR kit with platinum Taq according to the instructions (Invitrogen). Quantification rests on the measure of threshold cycles (CT), which are measured at the beginning of the exponential phase of the reaction and on the normalization of the internal standard curve obtained with the reference gene.

IL-8 [3] = test: Real-time PCR of IL-8 mRNA in keratinocytes stressed with LPS; type: cell-based, human; details: LPS 10 μg/ml alone
Experimental: as §1, §2, §3

IL-10 [4] = test: Real-time PCR of IL-10 mRNA in THP-1 cells stressed with LPS; type: cell-based; details: human monocyte-like cells (THP-1), LPS 10 μg/ml alone
Experimental: as §1, §2, §3

IL-8 [5] = test: Real-time PCR of IL-8 mRNA in THP-1 cells stressed with LPS; type: cell-based; details: human monocyte-like cells (THP-1), LPS 10 μg/ml alone
Experimental: as §1, §2, §3

IL-6 [6] = test: Real-time PCR of IL-6 mRNA in THP-1 cells stressed with LPS; type: cell-based; details: human monocyte-like cells (THP-1), LPS 10 μg/ml alone
Experimental: as §1, §2, §3

TNF-α [7] = test: Real-time PCR of TNF-α mRNA in THP-1 cells stressed with LPS; type: cell-based; details: human monocyte-like cells (THP-1), LPS 10 μg/ml alone
Experimental: as §1, §2, §3

TNF-α [8] = test: Real-time PCR of TNF-α mRNA in keratinocytes stressed with LPS; type: cell-based, human; details: LPS 10 μg/ml alone
Experimental: as §1, §2, §3

IL-6 [9] = test: Real-time PCR of IL-6 mRNA in keratinocytes stressed with LPS; type: cell-based, human; details: LPS 10 μg/ml alone
Experimental: as §1, §2, §3

Row | Compound | IC50 [1] [µM] | Gene expression (mRNA, real-time PCR) IL-10 (IL-10 [2]) | Gene expression (mRNA, real-time PCR) IL-8 (IL-8 [3]) | Gene expression (mRNA, real-time PCR) IL-10 (IL-10 [4]) | Gene expression (mRNA, real-time PCR) IL-8 (IL-8 [5]) | Gene expression (mRNA, real-time PCR) IL-6 (IL-6 [6]) | Gene expression (mRNA, real-time PCR) TNF-α (TNF-α [7]) | Gene expression (mRNA, real-time PCR) TNF-α (TNF-α [8]) | Gene expression (mRNA, real-time PCR) IL-6 (IL-6 [9])
1 | O=c1[nH]cc(F)c(=O)[nH]1 [5-fluorouracil] | 10 |  |  |  |  |  |  |  | 
2 | lipopolysaccharide [LPS] |  | 7 | 59 | 5 | 82 | 73 | 67 | 67 | 62
